# Data published in patent US20220370416A1, “COMPOUNDS AND METHODS FOR TARGETED DEGRADATION OF KRAS” (Arvinas Operations, Inc., priority 2020, published 2022).
# Key:
# [1] = target: T1, HiBit-KRAS^G12C (Homo sapiens, UniProt P01116, G12C); test: HiBit degradation assay in SW1573 HiBit-KRas^G12C cells; type: cell-based; design: expressed in transfected cells; host or cells: SW1573 (clone E6), modified pcDNA3.1 vector, TK promoter; conditions: 24 hours
# Procedure, shortened: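 SW1573 cells stably expressing N-terminally HiBit-tagged KRAS G12C, under the TK promoter, were treated 24 h at 37 °C with 10 μM to 20 nM compound in 0.1% or 0.5% DMSO. Residual HiBit luminescence normalised to DMSO and fitted with a 4-parameter model for DC50 and Dmax. Points with ≥50% viability loss (alamar blue) excluded.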
# [2] = target: T1, HiBit-KRAS^G12C; test: HiBit degradation assay in MiaPaCa-2 HiBit-KRas^G12C cells; type: cell-based; conditions: 24 hours; for Dmax: MIA PaCa-2, MiaPaCa-2 HiBit-KRas^G12C cells, maximum degradation; for DC50: MiaPaCa-2 HiBit-KRas^G12C cells
# Procedure, shortened: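 MiaPaCa-2 cells with CRISPR N-terminal HiBit knock-in on one endogenous KRAS^G12C allele, treated 24 hours at 37° C with compound titrated 10 μM to 20 nM (0.1% or 0.5% DMSO). Lytic HiBit luminescence normalized to DMSO, 4-parameter fit giving DC50 and Dmax; points cytotoxic to […] cells by alamar blue excluded.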
# [3] = SW1573, SW1573 HiBit-KRas^G12C, 0.5% DMSO, read-out: KRas^G12C-HiBiT (SW1573; 0.5% DMSO) Dmax**
# [4] = read-out: KRas^G12C-HiBiT (SW1573; 0.5% DMSO) IC50***, SW1573 HiBit-KRas^G12C, 0.5% DMSO
# [5] = 0.5% DMSO, read-out: KRas^G12C-HiBiT (MiaPaCa; 0.5% DMSO) DMax
# [6] = read-out: KRas^G12C-HiBiT (MiaPaCa; 0.5% DMSO) IC50, 0.5% DMSO
# [7] = SW1573, SW1573 HiBit-KRas^G12C, 0.1% DMSO, read-out: KRas^G12C-HiBit (SW1573; 0.1% DMSO) Dmax**
# [8] = SW1573 HiBit-KRas^G12C, 0.1% DMSO, read-out: KRas^G12C-HIBit (SW1573; 0.1% DMSO) DC50*
# [9] = 0.1% DMSO, read-out: KRas^G12C-HiBiT (MiaPaCa; 0.1% DMSO) DMax
# T1 sequence (P01116 1-186 isoform P01116-2 G12C limits assumed): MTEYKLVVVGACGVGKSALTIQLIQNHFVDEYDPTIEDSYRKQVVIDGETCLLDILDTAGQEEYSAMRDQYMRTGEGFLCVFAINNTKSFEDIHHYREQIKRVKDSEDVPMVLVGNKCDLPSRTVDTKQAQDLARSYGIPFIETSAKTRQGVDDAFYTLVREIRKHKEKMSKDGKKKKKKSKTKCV
SMILES,"Dmax [1, 3] [%]","DC50 [1, 4] [nM]","Dmax [2, 5] [%]","DC50 [2, 6] [nM]","Dmax [1, 7] [%]","DC50 [1, 8] [nM]","Dmax [2, 9] [%]","Dmax ([1]; SW1573, read-out: KRas^G12C-HiBit (SW1573; 0.1% DMSO) Dmax**, SW1573 HiBit-KRas^G12C, 0.1% DMSO) [%]","DC50 ([2]; read-out: KRas^G12C-HiBiT (MiaPaCa; 0.1% DMSO) IC50, 0.1% DMSO) [nM]"
"C=CC(=O)N1CCN(c2nc(O[C@H](C)CN3CCC(OCCOCC(=O)N[C@H](C(=O)N4C[C@@H](O)C[C@H]4C(=O)N[C@@H](C)c4ccc(-c5scnc5C)cc4)C(C)(C)C)CC3)nc3c(F)c(-c4cc(O)cc5ccccc45)c(Cl)cc23)CC1 [Compound 82, (2S,4S)-1-[(2S)-2-{2-[2-({1-[(2R)-2-{[6-chloro-8-fluoro-7-(3-hydroxynaphthalen-1-yl)-4-[4-(prop-2-enoyl)piperazin-1-yl]quinazolin-2-yl]oxy}propyl]piperidin-4-yl}oxy)ethoxy]acetamido}-3,3-dimethylbutanoyl]-4-hydroxy-N-[(1S)-1-[4-(4-methyl-1,3-thiazol-5-yl)phenyl]ethyl]pyrrolidine-2-carboxamide]",< 35,,35 to 70,,35 to 70,> 1000,35 to 70,,
"C=CC(=O)N1CCN(c2nc(O[C@H](C)CN3CCC(COc4cc([C@@H](C(=O)N5C[C@H](O)C[C@H]5C(=O)N[C@@H](C)c5ccc(-c6scnc6C)cc5)C(C)C)on4)CC3)nc3c(F)c(-c4cc(O)cc5ccccc45)c(Cl)cc23)CC1 [Compound 20, (2S,4R)-1-[(2S)-2-[3-({1-[(2R)-2-{[6-chloro-8-fluoro-7-(3-hydroxynaphthalen-1-yl)-4-[4-(prop-2-enoyl)piperazin-1-yl]quinazolin-2-yl]oxy}propyl]piperidin-4-yl}methoxy)-1,2-oxazol-5-yl]-3-methylbutanoyl]-4-hydroxy-N-[(1S)-1-[4-(4-methyl-1,3-thiazol-5-yl)phenyl]ethyl]pyrrolidine-2-carboxamide]",35 to 70,,35 to 70,,35 to 70,100 to 1000,35 to 70,,
"C=C(F)C(=O)N1CCN(c2nc(OCCN3CCC(COCC(=O)N[C@H](C(=O)N4C[C@H](O)C[C@H]4C(=O)N[C@@H](C)c4ccc(-c5scnc5C)cc4)C(C)(C)C)CC3)nc3c(F)c(-c4cc(O)cc5ccccc45)c(Cl)cc23)C[C@@H]1CC#N (atropisomer, axis not shown) [Compound 151, (2S,4R)-1-[(2S)-2-[2-({1-[2-({6-chloro-4-[(3S)-3-(cyanomethyl)-4-(2-fluoroprop-2-enoyl)piperazin-1-yl]-8-fluoro-7-(3-hydroxynaphthalen-1-yl)quinazolin-2-yl}oxy)ethyl]piperidin-4-yl}methoxy)acetamido]-3,3-dimethylbutanoyl]-4-hydroxy-N-[(1S)-1-[4-(4-methyl-1,3-thiazol-5-yl)phenyl]ethyl]pyrrolidine-2-carboxamide]",> 70,< 100,> 70,,,,,,
"C=CC(=O)N1CCN(c2nc(O[C@H](C)CN3CCN(CCCOC4CN(CC(=O)N[C@H](C(=O)N5C[C@H](O)C[C@H]5C(=O)N[C@@H](C)c5ccc(-c6scnc6C)cc5)C(C)(C)C)C4)CC3)nc3c(F)c(-c4cc(O)cc5ccccc45)c(Cl)cc23)CC1 [Compound 57, (2S,4R)-1-[(2S)-2-{2-[3-(3-{4-[(2R)-2-{[6-chloro-8-fluoro-7-(3-hydroxynaphthalen-1-yl)-4-[4-(prop-2-enoyl)piperazin-1-yl]quinazolin-2-yl]oxy}propyl]piperazin-1-yl}propoxy)azetidin-1-yl]acetamido}-3,3-dimethylbutanoyl]-4-hydroxy-N-[(1S)-1-[4-(4-methyl-1,3-thiazol-5-yl)phenyl]ethyl]pyrrolidine-2-carboxamide]",,,,,,100 to 1000,,< 35,> 1000
"C=C(F)C(=O)N1CCN(c2nc(O[C@H](C)CN3CCC(COCC(=O)N[C@H](C(=O)N4C[C@H](O)C[C@H]4C(=O)N[C@@H](C)c4ccc(-c5scnc5C)cc4)C(C)(C)C)CC3)nc3c2CCN(c2cc(O)cc4ccccc24)C3)C[C@@H]1CC#N [Compound 24, (2S,4R)-1-[(2S)-2-[2-({1-[(2R)-2-({4-[(3S)-3-(cyanomethyl)-4-(2-fluoroprop-2-enoyl)piperazin-1-yl]-7-(3-hydroxynaphthalen-1-yl)-5H,6H,7H,8H-pyrido[3,4-d]pyrimidin-2-yl}oxy)propyl]piperidin-4-yl}methoxy)acetamido]-3,3-dimethylbutanoyl]-4-hydroxy-N-[(1S)-1-[4-(4-methyl-1,3-thiazol-5-yl)phenyl]ethyl]pyrrolidine-2-carboxamide]",,,,,< 35,> 1000,< 35,,

# Second part, led by results:
"Dmax [1, 3] [%]","DC50 [1, 4] [nM]","Dmax [2, 5] [%]","DC50 [2, 6] [nM]","Dmax [1, 7] [%]","DC50 [1, 8] [nM]","Dmax [2, 9] [%]",SMILES,"Dmax ([1]; SW1573, read-out: KRas^G12C-HiBit (SW1573; 0.1% DMSO) Dmax**, SW1573 HiBit-KRas^G12C, 0.1% DMSO) [%]","DC50 ([2]; read-out: KRas^G12C-HiBiT (MiaPaCa; 0.1% DMSO) IC50, 0.1% DMSO) [nM]"
< 35,100 to 1000,< 35,100 to 1000,,,,"C=C(F)C(=O)N1CCN(c2nc(O[C@H](C)CN3CCC(COc4cc([C@H](C(=O)N5C[C@H](O)C[C@H]5C(=O)N[C@@H](C)c5ccc(-c6scnc6C)cc5)C(C)C)on4)CC3)nc3c(F)c(-c4cc(O)cc5ccccc45)c(Cl)cc23)C[C@@H]1CC#N [Compound 155, (2S,4R)-1-[(2R)-2-[3-({1-[(2R)-2-({6-chloro-4-[(3S)-3-(cyanomethyl)-4-(2-fluoroprop-2-enoyl)piperazin-1-yl]-8-fluoro-7-(3-hydroxynaphthalen-1-yl)quinazolin-2-yl}oxy)propyl]piperidin-4-yl}methoxy)-1,2-oxazol-5-yl]-3-methylbutanoyl]-4-hydroxy-N-[(1S)-1-[4-(4-methyl-1,3-thiazol-5-yl)phenyl]ethyl]pyrrolidine-2-carboxamide]",,
> 70,> 1000,> 70,> 1000,,,,"C=CC(=O)N1CCN(c2nc(OCCN3CCC(COCC(=O)N[C@H](C(=O)N4C[C@H](O)C[C@H]4C(=O)N[C@@H](C)c4ccc(-c5scnc5C)cc4)C(C)(C)C)CC3)nc3c(F)c(-c4nc(NC)cc5ccccc45)c(Cl)cc23)C[C@@H]1CC#N [Compound 99, (2S,4R)-1-[(2S)-2-[2-({1-[2-({6-chloro-4-[(3S)-3-(cyanomethyl)-4-(prop-2-enoyl)piperazin-1-yl]-8-fluoro-7-[3-(methylamino)isoquinolin-1-yl]quinazolin-2-yl}oxy)ethyl]piperidin-4-yl}methoxy)acetamido]-3,3-dimethylbutanoyl]-4-hydroxy-N-[(1S)-1-[4-(4-methyl-1,3-thiazol-5-yl)phenyl]ethyl]pyrrolidine-2-carboxamide]",,
> 70,100 to 1000,35 to 70,100 to 1000,,,,"C=C(F)C(=O)N1CCN(c2nc(OCCN3CCC(OCCOCC(=O)N[C@H](C(=O)N4C[C@H](O)C[C@H]4C(=O)N[C@@H](C)c4ccc(-c5scnc5C)cc4)C(C)(C)C)CC3)nc3c(F)c(-c4cc(O)cc5ccccc45)c(Cl)cc23)C[C@@H]1CC#N [Compound 170, (2S,4R)-1-[(2S)-2-{2-[2-({1-[2-({6-chloro-4-[(3S)-3-(cyanomethyl)-4-(2-fluoroprop-2-enoyl)piperazin-1-yl]-8-fluoro-7-(3-hydroxynaphthalen-1-yl)quinazolin-2-yl}oxy)ethyl]piperidin-4-yl}oxy)ethoxy]acetamido}-3,3-dimethylbutanoyl]-4-hydroxy-N-[(1S)-1-[4-(4-methyl-1,3-thiazol-5-yl)phenyl]ethyl]pyrrolidine-2-carboxamide]",,
35 to 70,100 to 1000,35 to 70,100 to 1000,,,,C=CC(=O)N1CCN(c2nc(OCCN3CCC(COCC(=O)N[C@H](C(=O)N4C[C@H](O)C[C@H]4C(=O)N[C@@H](C)c4ccc(-c5scnc5C)cc4)C(C)(C)C)CC3)nc3c(F)c(-c4nc(N)cc5ccccc45)c(Cl)cc23)C[C@@H]1CC#N [Compound 111],,
,> 1000,< 35,100 to 1000,,,,"C=CC(=O)N1CCN(c2nc(OCCN3CCC4(CC3)CN(c3cc([C@@H](C(=O)N5C[C@H](O)C[C@H]5C(=O)N[C@@H](C)c5ccc(-c6scnc6C)cc5)C(C)C)on3)C4)nc3c(F)c(-c4cc(O)cc5ccccc45)c(Cl)cc23)C[C@@H]1CC#N (atropisomer, axis not shown) [Compound 108, (2S,4R)-1-[(2S)-2-(3-{7-[2-({6-chloro-4-[(3S)-3-(cyanomethyl)-4-(prop-2-enoyl)piperazin-1-yl]-8-fluoro-7-(3-hydroxynaphthalen-1-yl)quinazolin-2-yl}oxy)ethyl]-2,7-diazaspiro[3.5]nonan-2-yl}-1,2-oxazol-5-yl)-3-methylbutanoyl]-4-hydroxy-N-[(1S)-1-[4-(4-methyl-1,3-thiazol-5-yl)phenyl]ethyl]pyrrolidine-2-carboxamide]",,
